These are literature values, as cited in EP4512393A1, “COMBINATION OF SODIUM DICHLOROACETATE AND VALPROIC ACID SALTS FOR THE TREATMENT OF VIRAL AND BACTERIAL INFECTIONS AND INFLAMMATORY DISEASES” (Lietuvos sveikatos mokslu universitetas, priority 2023, dated 2025).

This series has as its system leukocyte migration into the peritoneal cavity. The settings on record: peritonitis-induced male rat model.

SMILES strings stand for the structures.

On to `CCCC(CCC)C(=O)O` [VPA, 2-n-propyl-pentanoic acid], for which the “inhibition of leukocyte migration into the peritoneal cavity” value is recorded as 92%.
